{"source": "PubChem BioAssay AID1996", "data": [{"conditions": "buffer; pH 7.4; 200.0 µM", "units": {"solubility kinetic": "µg/mL"}, "values": [{"smiles": "Cc1ccc(C)c(CN2C(=O)NC3(CCCCCC3)C2=O)c1", "solubility kinetic": 3.7}, {"smiles": "COc1cc(CC(=O)OCC(=O)c2ccc[nH]2)cc(OC)c1OC", "solubility kinetic": "> 50"}, {"smiles": "O=C(CC1SC(N2CCOCC2)=NC1=O)Nc1cccc(C(F)(F)F)c1", "note": "(configuration not stated)", "solubility kinetic": 27.8}, {"smiles": "O=C(O)CC1(CC(=O)N2CCC(C(=O)O)CC2)CCCC1", "solubility kinetic": 40.6}, {"smiles": "O=C(O)[C@H](Cc1ccccc1)Nc1ccc([N+](=O)[O-])cn1", "solubility kinetic": "> 43.1"}, {"smiles": "COc1ccc(CC(CC(=O)O)C(=O)NCc2ccccc2)cc1", "note": "(configuration not stated)", "solubility kinetic": 48.6}, {"smiles": "CNC(=O)c1ccc(NC(=O)Nc2ccccc2)cc1", "solubility kinetic": 6.6}, {"smiles": "O=C(NCc1ccco1)/C(=C/c1ccccc1)NC(=O)c1ccco1", "solubility kinetic": 42.4}, {"smiles": "O=C(NCc1ccc2c(c1)OCO2)Nc1ccc(F)cc1", "solubility kinetic": 3.1}, {"smiles": "CCN(Cc1ccncc1)C(=O)CSc1ccc2ccccc2c1", "solubility kinetic": 32.6}, {"smiles": "O=C(O)CCC(=O)Nc1nc2ccc([N+](=O)[O-])cc2s1", "solubility kinetic": "> 44.3"}, {"smiles": "FC(F)(F)Oc1ccc(NC2=NCCCS2)cc1", "solubility kinetic": 41.4}, {"smiles": "CN1CCCN(c2ccc([N+](=O)[O-])nc2)CC1", "solubility kinetic": "> 35.4"}, {"smiles": "CC(=O)NC(c1cccc([N+](=O)[O-])c1)c1ccc2cccnc2c1O", "note": "(configuration not stated)", "solubility kinetic": 3.5}, {"smiles": "Cc1ccc(S(=O)(=O)NC(=O)Nc2ccc(F)c(F)c2)cc1", "solubility kinetic": 44.1}, {"smiles": "COc1cc(N)c(Cl)cc1C(=O)OCC(=O)NC1CCCC1", "solubility kinetic": "> 49"}, {"smiles": "CCOc1ncc(S(=O)(=O)N2CCN(CC)CC2)cc1C(=O)O", "solubility kinetic": "> 51.5"}, {"smiles": "Cc1ccc(/C=C/C(=O)NCc2cccs2)c(C)c1", "solubility kinetic": "< 0.6"}, {"smiles": "Cc1ccc(Nc2cc(C)nc3ccccc23)c(C)c1", "solubility kinetic": "> 39.4"}, {"smiles": "Cc1cc(C(C)(C)C)ccc1NC(=O)CC(C)(C)CC(=O)O", "solubility kinetic": "> 45.8"}, {"smiles": "CCc1ccccc1NC(=O)C1CCCN(c2nccc(C)n2)C1", "note": "(configuration not stated)", "solubility kinetic": 3.4}, {"smiles": "CC(=O)c1ccc(Nc2c([N+](=O)[O-])ccc3nonc23)cc1", "solubility kinetic": "< 0.2"}, {"smiles": "CCOC(=O)c1c(O)c(O)c(C(=O)OCC)n1-c1ccccc1", "solubility kinetic": "> 47.9"}, {"smiles": "COc1ccc(C(=O)O/N=C(\\N)c2ccccn2)cc1", "solubility kinetic": "> 40.7"}, {"smiles": "CN1C(=O)C(O)(C2CCCCCC2=O)c2ccccc21", "note": "(configuration not stated)", "solubility kinetic": "> 41"}, {"smiles": "O=[N+]([O-])c1ncccc1OCc1ccccc1Br", "solubility kinetic": 5.7}, {"smiles": "N#C/C(=C\\c1cccnc1)c1ccccc1[N+](=O)[O-]", "solubility kinetic": 8}, {"smiles": "OCC1(Cc2ccccc2)CCN(CCCC2CCCC2)CC1", "solubility kinetic": "> 47.3"}, {"smiles": "Cc1nc(SCC(=O)N2CCOCC2)c2c3c(sc2n1)CCC3", "solubility kinetic": 32.8}, {"smiles": "CN(C)CCNC(=O)Cc1ncc(C(F)(F)F)cc1Cl", "solubility kinetic": "> 46.5"}, {"smiles": "Cl.OC(COCc1ccccc1F)CN1CCCCC1", "note": "(configuration not stated)", "solubility kinetic": 44.1}, {"smiles": "O=S(=O)(Nc1ccc(Cl)cc1)c1ccc2c(c1)CCO2", "solubility kinetic": "> 46.5"}, {"smiles": "Cc1cc(SCC(=O)Nc2ccc3[nH]c(=O)[nH]c3c2)nc2ccccc12", "solubility kinetic": 2.9}, {"smiles": "COc1ccc(C(=O)N2CCN(C(=O)C3CCCO3)CC2)cc1[N+](=O)[O-]", "note": "(configuration not stated)", "solubility kinetic": "> 54.5"}, {"smiles": "CCOc1ccc2oc(C(=O)Nc3cc(C)ccn3)c(C)c2c1", "solubility kinetic": 1.2}, {"smiles": "CC1CCCN(c2nc3nonc3nc2Nc2ccccc2F)C1", "note": "(configuration not stated)", "solubility kinetic": 0.8}, {"smiles": "Cc1ccc(NC(=O)c2ccc(Cl)c(S(=O)(=O)NCc3ccco3)c2)c(O)c1", "solubility kinetic": 7.3}, {"smiles": "O=C(c1cccnc1)N1CCN(S(=O)(=O)c2cccs2)CC1", "solubility kinetic": "> 50.6"}, {"smiles": "COc1ccc(C(C)=O)cc1Cc1c(O)[nH]c(=S)[nH]c1=O", "solubility kinetic": "> 46"}, {"smiles": "CNc1cc(Cl)nc(SC)n1", "solubility kinetic": "> 28.4"}, {"smiles": "NS(=O)(=O)c1cccc(NC(=O)CN2CCCc3ccccc32)c1", "solubility kinetic": "> 51.8"}, {"smiles": "Cc1c(Cl)ccc(S(=O)(=O)NCCN2CCOCC2)c1Cl", "solubility kinetic": "> 53"}, {"smiles": "CSCCC(=O)N1CCCC(CO)(CCCc2ccccc2)C1", "note": "(configuration not stated)", "solubility kinetic": 31.7}, {"smiles": "CC(C)n1c(SCC(=O)NC2CCCCC2)nnc1-c1ccco1", "solubility kinetic": "> 52.3"}, {"smiles": "O=C(CN1C(=O)c2ccccc2C1=O)N(CCO)Cc1ccccc1", "solubility kinetic": 48.7}, {"smiles": "CC(=O)Nc1ccc(-c2nc3ccc(NC(C)=O)cc3o2)cc1", "solubility kinetic": 2.2}, {"smiles": "Cn1c(=O)c(-c2ccccc2[N+](=O)[O-])c(Cl)c2ccccc21", "solubility kinetic": 1.2}]}]}
